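1) Cells in 96-well plates. 2) Compound, 48 h, 5 concentrations. 3) Linear interpolation between surrounding doses. 4) Unreached endpoint = highest concentration. GI50: concentration for 50% inhibition of growth.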 Calls of active or inactive are those of the source. No stated cut-off is given here; in the data, active = GI50 up to about 1.1 µM and inactive = higher.
Columns and labels:
Assay in all cases: DTP human tumour cell line panel, 48 h
SK-MEL-5 = test system: SK-MEL-5
MOLT-4 = test system: MOLT-4
NCI-H460 = test system: NCI-H460
NCI-H226 = test system: NCI-H226
SNB-75 = test system: SNB-75
UACC-62 = test system: UACC-62
NCI-H23 = test system: NCI-H23
OVCAR-4 = test system: OVCAR-4
HOP-92 = test system: HOP-92
NCI-H522 = test system: NCI-H522
786-0 = test system: 786-0
HOP-62 = test system: HOP-62
RPMI-8226 = test system: RPMI-8226
HCC 2998 = test system: HCC 2998
SF-295 = test system: SF-295
SW-620 = test system: SW-620
COLO 205 = test system: COLO 205
SK-OV-3 = test system: SK-OV-3

Measured: GI50

CC1=C(CO)C(=O)OC(C(C)C2CCC3C4CC5OC56C(O)C(N5CC5)=CC(=O)C6(C)C4CCC23C)C1 (stereo not given)
inactive: SK-MEL-5 12.8 µM | MOLT-4 1.95 µM | NCI-H460 9.44 µM | NCI-H226 14.2 µM | SNB-75 4.01 µM | UACC-62 10.5 µM | NCI-H23 2.35 µM | OVCAR-4 7.19 µM | HOP-92 5.33 µM | NCI-H522 1.67 µM | 786-0 5.05 µM | HOP-62 18.5 µM | RPMI-8226 3.35 µM | HCC 2998 2.93 µM | SF-295 16.5 µM | SW-620 2.56 µM

CCOC(=O)CC(=O)ON(C)C(C)=O
inactive: SK-MEL-5 > 100 µM | MOLT-4 > 100 µM | NCI-H460 > 100 µM | NCI-H226 > 100 µM | UACC-62 > 100 µM | NCI-H23 > 100 µM | COLO 205 > 100 µM | SK-OV-3 > 100 µM | OVCAR-4 > 100 µM | NCI-H522 > 100 µM | 786-0 > 100 µM | HOP-62 > 100 µM | RPMI-8226 > 100 µM | HCC 2998 > 100 µM | SF-295 > 100 µM | SW-620 > 100 µM

N#Cc1c2nc3ccccc3nc2n2ccc3ccccc3c12
inactive: SK-MEL-5 > 100 µM | MOLT-4 > 100 µM | NCI-H460 > 100 µM | NCI-H226 > 100 µM | SNB-75 > 100 µM | NCI-H23 68.4 µM | COLO 205 > 100 µM | SK-OV-3 > 100 µM | OVCAR-4 > 100 µM | HOP-92 > 100 µM | NCI-H522 > 100 µM | 786-0 > 100 µM | RPMI-8226 > 100 µM | HCC 2998 > 100 µM | SF-295 > 100 µM

COc1cc2ccc(CC#N)cc2cc1OC
inactive: SK-MEL-5 62.1 µM | MOLT-4 > 100 µM | NCI-H460 > 100 µM | NCI-H226 > 100 µM | NCI-H23 > 100 µM | SK-OV-3 > 100 µM | OVCAR-4 93.5 µM | HOP-92 71.1 µM | 786-0 > 100 µM | HOP-62 > 100 µM | SF-295 > 100 µM | SW-620 > 100 µM

CCC12CCCN(Cc3ccccc3)C1c1c(n(C)c3ccccc13)C(CO)C2 (stereo not given)
inactive: SK-MEL-5 40.2 µM | MOLT-4 22.4 µM | NCI-H460 39.5 µM | NCI-H226 34.3 µM | UACC-62 51.3 µM | NCI-H23 52.2 µM | COLO 205 38 µM | SK-OV-3 74.1 µM | HOP-92 33.4 µM | NCI-H522 30.8 µM | 786-0 44.1 µM | HOP-62 37.6 µM | RPMI-8226 37.2 µM | HCC 2998 58.1 µM | SF-295 26.9 µM | SW-620 35.6 µM

c1ccc(C(c2ccccc2)c2cccnc2)cc1
inactive: SK-MEL-5 83.8 µM | NCI-H460 > 100 µM | NCI-H226 > 100 µM | SNB-75 69 µM | UACC-62 > 100 µM | NCI-H23 65.8 µM | COLO 205 > 100 µM | SK-OV-3 > 100 µM | OVCAR-4 > 100 µM | 786-0 > 100 µM | HOP-62 > 100 µM | RPMI-8226 46.1 µM | HCC 2998 > 100 µM | SF-295 > 100 µM | SW-620 > 100 µM

CCOC(=O)NC(=O)c1c[nH]c(=O)[nH]c1=O
inactive: SK-MEL-5 > 100 µM | MOLT-4 > 100 µM | NCI-H460 > 100 µM | NCI-H226 > 100 µM | SNB-75 > 100 µM | UACC-62 > 100 µM | NCI-H23 > 100 µM | COLO 205 > 100 µM | SK-OV-3 > 100 µM | OVCAR-4 > 100 µM | HOP-92 > 100 µM | 786-0 > 100 µM | HOP-62 > 100 µM | RPMI-8226 > 100 µM | HCC 2998 > 100 µM | SF-295 > 100 µM | SW-620 > 100 µM

O=C(Oc1ccc(Cl)cc1[N+](=O)[O-])c1ccccc1
inactive: SK-MEL-5 16 µM | MOLT-4 > 100 µM | NCI-H460 > 100 µM | NCI-H226 92.9 µM | SNB-75 90.8 µM | UACC-62 > 100 µM | NCI-H23 69.2 µM | COLO 205 > 100 µM | SK-OV-3 > 100 µM | OVCAR-4 43.4 µM | HOP-92 > 100 µM | HOP-62 > 100 µM | RPMI-8226 91.4 µM | HCC 2998 > 100 µM | SF-295 > 100 µM | SW-620 > 100 µM

C[Si](C)(C)C(Sc1ccccc1)(Sc1ccccc1)Sc1ccccc1
inactive: SK-MEL-5 67.9 µM | MOLT-4 4.28 µM | NCI-H460 > 100 µM | SNB-75 40.5 µM | UACC-62 26.4 µM | NCI-H23 22.3 µM | COLO 205 62.2 µM | SK-OV-3 > 100 µM | OVCAR-4 > 100 µM | HOP-92 17.1 µM | 786-0 > 100 µM | RPMI-8226 41.7 µM | HCC 2998 94 µM | SF-295 74.1 µM | SW-620 46.7 µM

CC[C@H](C)[C@H]1NC(=O)C(C(C)=O)=C1O
inactive: SK-MEL-5 98.9 µM | MOLT-4 > 100 µM | NCI-H460 80 µM | NCI-H226 > 100 µM | SNB-75 91.2 µM | UACC-62 97.5 µM | NCI-H23 > 100 µM | COLO 205 > 100 µM | OVCAR-4 95.9 µM | HOP-92 > 100 µM | NCI-H522 88.5 µM | 786-0 98.6 µM | HOP-62 > 100 µM | HCC 2998 54 µM | SF-295 > 100 µM | SW-620 21.4 µM

CC(=O)NC1=C(NCc2ccc(Cl)cc2)C(=O)c2ccccc2C1=O
inactive: SK-MEL-5 5.46 µM | MOLT-4 2.38 µM | NCI-H460 10.8 µM | NCI-H226 9.59 µM | SNB-75 7.08 µM | UACC-62 2.61 µM | NCI-H23 6.76 µM | COLO 205 5.4 µM | SK-OV-3 18.2 µM | OVCAR-4 6.85 µM | 786-0 8.77 µM | HOP-62 12.5 µM | HCC 2998 27.5 µM | SF-295 13.3 µM | SW-620 7 µM
active: NCI-H522 0.986 µM

Cc1cccc(NC(=O)c2c(N)[n+]([O-])c3ccccc3[n+]2[O-])c1
inactive: SK-MEL-5 5.53 µM | MOLT-4 4.89 µM | NCI-H460 12.9 µM | NCI-H226 5.66 µM | SNB-75 13 µM | NCI-H23 9.68 µM | COLO 205 13.3 µM | SK-OV-3 21.1 µM | OVCAR-4 9.98 µM | HOP-92 15.2 µM | NCI-H522 6.01 µM | 786-0 5.02 µM | HOP-62 17.1 µM | SF-295 10.9 µM | SW-620 8.38 µM

N=C(N)NS(=O)(=O)c1ccc(NCCc2c3ccccc3nc3ccccc23)cc1
inactive: MOLT-4 22.8 µM | NCI-H460 > 100 µM | NCI-H226 > 100 µM | SNB-75 > 100 µM | NCI-H23 > 10 µM | COLO 205 76 µM | SK-OV-3 > 100 µM | OVCAR-4 1.31 µM | HOP-92 > 100 µM | NCI-H522 > 100 µM | 786-0 > 100 µM | HOP-62 > 100 µM | RPMI-8226 7.26 µM | HCC 2998 > 100 µM | SF-295 > 100 µM | SW-620 > 100 µM

COc1ccc(C2Oc3cc(OC)c(OC)cc3C2CCl)cc1OC (stereo not given)
inactive: SK-MEL-5 34.1 µM | MOLT-4 > 100 µM | NCI-H460 > 100 µM | NCI-H226 > 100 µM | SNB-75 44.8 µM | UACC-62 25.6 µM | NCI-H23 > 10 µM | COLO 205 > 100 µM | OVCAR-4 41.4 µM | HOP-92 74.3 µM | NCI-H522 > 100 µM | 786-0 56.8 µM | HOP-62 > 100 µM | RPMI-8226 > 100 µM | HCC 2998 > 100 µM | SW-620 > 100 µM

Cc1ccc(-c2cc(-c3ccccc3)c(C#N)c(=O)n2C2OC(CO)C(O)C(O)C2O)cc1 (stereo not given)
inactive: SK-MEL-5 58.5 µM | MOLT-4 21.1 µM | NCI-H460 > 100 µM | NCI-H226 > 100 µM | UACC-62 > 100 µM | NCI-H23 > 100 µM | COLO 205 > 100 µM | SK-OV-3 > 100 µM | OVCAR-4 > 100 µM | HOP-92 > 100 µM | NCI-H522 > 100 µM | 786-0 > 100 µM | HOP-62 > 100 µM | RPMI-8226 > 100 µM | HCC 2998 > 100 µM | SF-295 > 100 µM | SW-620 > 100 µM

O=C(CC1(O)C(=O)Nc2c(Cl)cc(Cl)cc21)c1ccc2ccccc2c1 (stereo not given)
inactive: SK-MEL-5 6.11 µM | MOLT-4 6.24 µM | NCI-H460 4.7 µM | SNB-75 3.99 µM | UACC-62 3.55 µM | NCI-H23 7.33 µM | COLO 205 8.79 µM | SK-OV-3 10.4 µM | OVCAR-4 13.6 µM | HOP-92 21.4 µM | NCI-H522 2.92 µM | 786-0 10.2 µM | HOP-62 7.83 µM | RPMI-8226 5.22 µM | HCC 2998 > 10 µM | SF-295 7.93 µM | SW-620 3.66 µM

N#Cc1cccc(/C=N/N/C(N)=N/O)c1
inactive: NCI-H460 32.1 µM | NCI-H226 56.1 µM | SNB-75 14.8 µM | UACC-62 13 µM | NCI-H23 97.9 µM | COLO 205 > 100 µM | SK-OV-3 27.5 µM | OVCAR-4 20.9 µM | HOP-92 39.4 µM | NCI-H522 21.6 µM | 786-0 > 100 µM | HOP-62 92.7 µM | SF-295 > 100 µM | SW-620 > 100 µM
